Test results published in US20130018020A1, “INHIBITOR FOR MELANIN, AND COSMETIC COMPOSITION CONTAINING SAME” (AMOREPACIFIC CORPORATION, priority 2010, published 2013).

Test system: Human melanoma HM3KO cells
Assay: Effect on inhibition of melanin production
Assay type: cell-based
Conditions: 10 ppm of each test material, absorbance at 500 nm vs DMSO control
Method: Human melanoma HM3KO cells (Y. Funasaka, Department of dermatology, Kobe university school of medicine, 5-1 Kusunoki-cho 7-chrome, Chuo-ku, Kobe 650, Japan) were cultured in 10% FBS-containing MEM (Minimum Essential Medium) under the conditions of 37° C. and 5% CO2. The cultured cells were plated on T75 flasks at a density of 3×10^5 cells per flask and allowed to stand overnight until the cells adhered to the flask wall. After the cells were confirmed to adhere to the flask wall, the medium was replaced with a fresh medium containing 10 ppm of each of the test materials shown in Table 1 below. In a control group, a DMSO-containing medium was used. In this manner, the medium was replaced with a fresh medium containing each test material once at intervals of 2-3 days, while the cells were cultured until the flask was filled with the cells. When the cells completely grew, the cells were collected, and the color thereof was compared between the control group and each of the groups treated with the test material. In addition, after the culture medium has been removed and the cells were washed with PBS, the cells were dissolved in 1N sodium hydroxide, and the absorbance at 500 nm was measured. Based on the measurements, the inhibition (%) of melanin production was calculated using the following equation 1, and the results of the calculation are shown in Table 1 below. Inhibition (%) of melanin production=[…] [Equation 1]

Q: With `O=c1cc(CO)occ1O` [Kojic acid] as the compound, how does the inhibition at 10 ppm read?
A: 28.3%

Q: `NC(=O)c1cccnc1` [Nicotinic acid amide] was tested. Which inhibition at 10 ppm did it give?
A: 29.5%

Q: `NC[C@H]1CC[C@H](C(=O)O)CC1` [Tranexamic acid] was tested. Which inhibition at 10 ppm did it give?
A: 32.2%
